Patent publication US20140243273A1, “METHODS FOR TREATING INFLAMMATORY DISEASES AND PHARMACEUTICAL COMBINATIONS USEFUL THEREFOR” (Vertex Pharmaceuticals Incorporated, priority 2011, published 2014)

Key:
JAK2 = JAK2 (Homo sapiens, UniProt O60674); test: JAK2 Inhibition Assay; assay type: biochemical; conditions: 5 nM JAK-2 enzyme, 15 μM poly(Glu)4Tyr, 12 μM ATP; kind of constant not given
Experimental: [The procedure below names another target; the source says it served here with some conditions changed.] (§1) Compounds were screened for their ability to inhibit JAK3 using the assay shown below. Reactions were carried out in a kinase buffer containing 100 mM HEPES (pH 7.4), 1 mM DTT, 10 mM MgCl2, 25 mM NaCl, and 0.01% BSA. Substrate concentrations in the assay were 5 μM ATP (200 uCi/μmole ATP) and 1 μM poly(Glu)4Tyr. Reactions were carried out at 25° C. and 1 nM JAK3.
(§2) To each well of a 96 well polycarbonate plate was added 1.5 μl of a compound of Formula I along with 50 μl of kinase buffer containing 2 μM poly(Glu)4Tyr and 10 μM ATP. This was then mixed and 50 μl of kinase buffer containing 2 nM JAK3 enzyme was added to start the reaction. After 15 minutes at room temperature (25° C.), the reaction was stopped with 50 μl of 20% trichloroacetic acid (TCA) that also contained 0.4 mM ATP. The entire contents of each well were then transferred to a 96 well glass fiber filter plate using a TomTek Cell Harvester. After washing, 60 μl of scintillation fluid was added and ^33P incorporation detected on a Perkin Elmer TopCount.

JAK3 = target: T1, JAK3 (Homo sapiens, UniProt P52333); test: JAK3 Inhibition Assay; assay type: biochemical; conditions: 1 nM JAK3, 1 μM poly(Glu)4Tyr, 5 μM ATP, 25° C.; kind of constant not given
T1 sequence (P52333 1-1124): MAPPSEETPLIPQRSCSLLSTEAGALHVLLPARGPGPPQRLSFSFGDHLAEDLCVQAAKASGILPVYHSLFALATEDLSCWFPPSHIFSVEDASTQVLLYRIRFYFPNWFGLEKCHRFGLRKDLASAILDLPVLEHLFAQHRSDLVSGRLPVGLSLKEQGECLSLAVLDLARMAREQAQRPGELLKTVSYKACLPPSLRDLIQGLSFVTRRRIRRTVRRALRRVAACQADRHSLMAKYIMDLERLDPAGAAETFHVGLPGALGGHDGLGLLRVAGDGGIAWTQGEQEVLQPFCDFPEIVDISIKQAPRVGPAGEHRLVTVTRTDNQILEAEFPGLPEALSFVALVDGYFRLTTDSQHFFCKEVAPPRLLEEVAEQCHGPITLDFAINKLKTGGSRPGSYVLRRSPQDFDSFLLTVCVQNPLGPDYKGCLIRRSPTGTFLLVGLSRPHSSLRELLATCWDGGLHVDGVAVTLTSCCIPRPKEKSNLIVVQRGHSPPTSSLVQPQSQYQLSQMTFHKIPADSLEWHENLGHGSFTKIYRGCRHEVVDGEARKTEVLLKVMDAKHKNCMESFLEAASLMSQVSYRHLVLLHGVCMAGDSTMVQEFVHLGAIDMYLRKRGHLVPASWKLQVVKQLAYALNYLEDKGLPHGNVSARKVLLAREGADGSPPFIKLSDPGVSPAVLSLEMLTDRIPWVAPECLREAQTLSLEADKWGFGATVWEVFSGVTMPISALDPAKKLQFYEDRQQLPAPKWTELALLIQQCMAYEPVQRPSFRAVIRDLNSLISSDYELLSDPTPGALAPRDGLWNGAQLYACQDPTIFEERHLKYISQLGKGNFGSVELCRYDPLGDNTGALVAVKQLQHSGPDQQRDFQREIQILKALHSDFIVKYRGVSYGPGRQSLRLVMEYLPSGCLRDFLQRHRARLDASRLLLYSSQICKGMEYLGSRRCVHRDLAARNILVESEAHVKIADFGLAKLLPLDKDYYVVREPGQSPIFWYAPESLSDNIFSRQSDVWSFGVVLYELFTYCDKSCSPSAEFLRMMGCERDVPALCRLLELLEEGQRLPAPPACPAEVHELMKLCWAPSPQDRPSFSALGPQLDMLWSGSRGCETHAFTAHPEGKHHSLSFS
Experimental: as §1, §2

mouse colitis model = test: Mouse model for Crohn's disease and ulcerative colitis (CD4+CD25- T cell transfer into SCID mice); assay type: in vivo; conditions: compound no. 9 (methane sulfonic acid), 50, 100, 150 mpk b.i.d., oral gavage, days 19-33, SCID mice
Experimental: Female SCID mice received grafts of 2.5×10e5 CD4+CD25-T cells from naïve BALB/c wild type donors (all Charles River Laboratories) to induce colitis. On day 14, after cell transfer, the recipient SCID mice were tested for graft acceptance and mice without T cells removed from the study. On days 19-33, the recipient SCID mice were administered compound no. 9 (methane sulfonic acid) mixed with vehicle (1% HPMC-c5, 50 mM Na citrate, pH 3.0) in doses of 50, 100, and 150 mpk b.i.d. Control mice were administered either saline, vehicle (1% HPMC-c5, 50 mM Na citrate, pH 3.0), or 1 mpk dexamethasone, b.i.d. Doses were administered via oral gavage. On day 35, the mice were sacrificed.

Sequence of JAK2 (O60674 whole entry, species assumed): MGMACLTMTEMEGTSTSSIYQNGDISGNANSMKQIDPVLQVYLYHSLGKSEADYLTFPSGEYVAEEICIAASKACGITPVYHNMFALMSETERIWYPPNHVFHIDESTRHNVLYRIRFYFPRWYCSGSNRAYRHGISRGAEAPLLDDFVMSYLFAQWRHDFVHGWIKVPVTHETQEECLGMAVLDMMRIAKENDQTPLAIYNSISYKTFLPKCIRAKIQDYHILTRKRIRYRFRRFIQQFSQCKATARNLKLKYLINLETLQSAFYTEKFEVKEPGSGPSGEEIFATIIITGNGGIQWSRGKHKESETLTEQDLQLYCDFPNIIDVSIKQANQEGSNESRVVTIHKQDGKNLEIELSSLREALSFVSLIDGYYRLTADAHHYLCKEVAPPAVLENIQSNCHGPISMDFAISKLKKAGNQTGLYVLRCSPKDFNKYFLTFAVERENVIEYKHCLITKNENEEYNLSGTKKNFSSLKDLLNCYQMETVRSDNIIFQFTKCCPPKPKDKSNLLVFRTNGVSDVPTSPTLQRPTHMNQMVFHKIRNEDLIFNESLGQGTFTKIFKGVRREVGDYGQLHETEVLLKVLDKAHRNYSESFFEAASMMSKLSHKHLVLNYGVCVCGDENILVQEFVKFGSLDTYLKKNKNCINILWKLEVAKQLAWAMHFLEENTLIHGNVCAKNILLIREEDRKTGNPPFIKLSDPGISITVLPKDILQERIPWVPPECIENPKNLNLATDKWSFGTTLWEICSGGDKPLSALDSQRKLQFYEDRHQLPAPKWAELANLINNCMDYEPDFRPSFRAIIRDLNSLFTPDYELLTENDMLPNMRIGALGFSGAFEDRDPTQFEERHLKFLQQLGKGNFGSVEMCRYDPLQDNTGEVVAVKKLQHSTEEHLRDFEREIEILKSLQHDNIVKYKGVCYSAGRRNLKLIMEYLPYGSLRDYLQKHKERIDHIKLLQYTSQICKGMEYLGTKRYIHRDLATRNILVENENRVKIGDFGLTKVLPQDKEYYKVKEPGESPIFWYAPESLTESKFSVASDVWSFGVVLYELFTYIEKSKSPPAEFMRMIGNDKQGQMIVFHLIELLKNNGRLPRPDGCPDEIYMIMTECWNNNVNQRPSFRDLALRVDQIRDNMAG

JAK2 (μM), inhibition data (JAK2)	JAK3 (μM), inhibition data (JAK3)	SMILES	colon histology (mouse colitis model)	colon pathology (mouse colitis model)	frequency of splenic CD4+ T cells (mouse colitis model)	inflammatory cytokine production (mouse colitis model; colon tissue)
0.028 µM	0.0042 µM	CC[C@](C)(Nc1nc(-c2c[nH]c3ncccc23)ncc1F)C(=O)NCC(F)(F)F [compound 3]	–	–	–	–
0.001 µM	0.002 µM	CC(C)[C@](C)(Nc1nc(-c2c[nH]c3ncc(Cl)cc23)ncc1F)C(=O)NCC(F)(F)F [compound 10]	–	–	–	–
0.001 µM	0.004 µM	CC(C)(Nc1nc(-c2c[nH]c3ncc(Cl)cc23)ncc1F)C(=O)NCC(F)(F)F [compound 19]	–	–	–	–
0.015 µM	0.003 µM	CC[C@@](C)(Nc1ccnc(-c2c[nH]c3ncccc23)n1)C(=O)NCC(F)(F)F [compound 1]	–	–	–	–
0.091 µM	0.0056 µM	CC(C)(Nc1nc(-c2c[nH]c3ncccc23)ncc1F)C(=O)NCC(F)(F)F [compound 4]	–	–	–	–
0.01 µM	0.002 µM	CC[C@@](C)(Nc1ccnc(-c2c[nH]c3ncc(Cl)cc23)n1)C(=O)NCC(F)(F)F [compound 16]	–	–	–	–
0.028 µM	0.0032 µM	CC(C)(Nc1ccnc(-c2c[nH]c3ncccc23)n1)C(=O)NCC(F)(F)F [compound 2]	–	–	–	–
0.083 µM	0.019 µM	CCNC(=O)C(C)(C)Nc1ncnc(-c2c[nH]c3ncccc23)n1 [compound 8]	–	–	–	–
0.003 µM	0.001 µM	CCNC(=O)C(C)(C)Nc1ccnc(-c2c[nH]c3ncc(Cl)cc23)n1 [compound 17]	–	–	–	–
0.001 µM	0.002 µM	CC[C@](C)(Nc1nc(-c2c[nH]c3ncc(Cl)cc23)ncc1F)C(=O)NCC(F)(F)F [compound 15]	–	–	–	–
0.037 µM	0.006 µM	CC[C@@](C)(Nc1nc(-c2c[nH]c3ncc(Cl)cc23)ncc1F)C(=O)NCC(F)(F)F [compound 12]	–	–	–	–
0.002 µM	0.003 µM	CC[C@](C)(Nc1ccnc(-c2c[nH]c3ncc(Cl)cc23)n1)C(=O)NCC(F)(F)F [compound 14]	–	–	–	–
0.055 µM	0.006 µM	CC(C)[C@@](C)(Nc1nc(-c2c[nH]c3ncc(Cl)cc23)ncc1F)C(=O)NCC(F)(F)F [compound 11]	–	–	–	–
0.003 µM	0.001 µM	CC(C)(Nc1ncnc(-c2c[nH]c3ncc(Cl)cc23)n1)C(=O)NCC(F)(F)F [compound 13]	–	–	–	–
0.0007 µM	0.001 µM	CC(C)[C@](C)(Nc1ccnc(-c2c[nH]c3ncc(Cl)cc23)n1)C(=O)NCC(F)(F)F [compound 18]	–	–	–	–
0.001 µM	0.001 µM	CC(C)(Nc1ccnc(-c2c[nH]c3ncc(Cl)cc23)n1)C(=O)NCC(F)(F)F [Compound No. 9]	Improvements	improved	significant reduction	improved
0.0042 µM	0.0024 µM	CC(C)[C@](C)(Nc1ccnc(-c2c[nH]c3ncccc23)n1)C(=O)NCC(F)(F)F [compound 5]	–	–	–	–
0.046 µM	0.0045 µM	CC(C)(Nc1ncnc(-c2c[nH]c3ncccc23)n1)C(=O)NCC(F)(F)F [compound 6]	–	–	–	–
0.056 µM	0.018 µM	CCN(C)C(=O)[C@](C)(CC)Nc1ccnc(-c2c[nH]c3ncccc23)n1 [compound 7]	–	–	–	–
